Reference: ChEMBL document CHEMBL1127928, “Macrolide-type motilin receptor agonists: Assessment of the biological value of the 2- and 4-hydroxyl groups of acid-stable 8,9-anhydroerythromycin A 6,9-hemiacetals” (Bioorg Med Chem Lett, 1994)
In brackets after ≈: the same amount, converted by molar mass.

What was measured:
Motilin receptor [1] = target: T1, Motilin receptor (Oryctolagus cuniculus, UniProt A5A4K8); experiment: In vitro binding affinity towards motilin receptor was determined in rabbit small intestinal smooth muscle tissue homogenate; type: tissue-based
Canis familiaris [2] = experiment: In vivo contractile activity in the gastric antrum and the small intestine in fasted conscious dogs upon intravenous administration was determined; type: functional, Canis lupus familiaris
Oryctolagus cuniculus = species: Oryctolagus cuniculus; experiment: In vitro contractile activity was measured in the rabbit duodenum preparation; type: functional
Motilin receptor [3] = target: T1, Motilin receptor; experiment: In vitro binding affinity towards motilin receptor was determined after treatment with hydrochloric acid in rabbit small intestinal smooth muscle tissue homogenate; type: tissue-based
Canis familiaris [4] = experiment: In vivo contractile activity in the gastric antrum and the small intestine in fasted conscious dogs upon intragastric administration was determined; type: functional, Canis lupus familiaris
Streptococcus pneumoniae = experiment: Tested for antimicrobial activity against Streptococcus pneumoniae No. 12; type: functional
Klebsiella pneumoniae = experiment: Tested for antimicrobial activity against Klebsiella pneumoniae IFO 3512; type: functional
Staphylococcus aureus = experiment: Tested for antimicrobial activity against Staphylococcus aureus 209P; type: functional
Bacillus subtilis = experiment: Tested for antimicrobial activity against Bacillus subtilis ATCC 6633; type: functional

T1 sequence (A5A4K8 whole entry): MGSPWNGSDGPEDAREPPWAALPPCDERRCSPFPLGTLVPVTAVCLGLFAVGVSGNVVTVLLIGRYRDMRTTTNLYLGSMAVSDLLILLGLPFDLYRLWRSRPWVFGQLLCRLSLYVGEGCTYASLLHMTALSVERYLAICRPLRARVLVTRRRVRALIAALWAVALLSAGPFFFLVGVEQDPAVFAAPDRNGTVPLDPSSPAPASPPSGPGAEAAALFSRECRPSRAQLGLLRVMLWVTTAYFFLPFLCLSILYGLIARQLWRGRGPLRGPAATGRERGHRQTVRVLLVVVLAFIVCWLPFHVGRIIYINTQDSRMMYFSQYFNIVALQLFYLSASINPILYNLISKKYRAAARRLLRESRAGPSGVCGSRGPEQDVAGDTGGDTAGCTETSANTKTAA

## CCC1OC(=O)C(C)C(O[C@H]2C[C@@](C)(OC)CC(C)O2)C(C)[C@@H](OC2CC(N(C)C(C)C)CC(C)O2)[C@]2(C)CC(C)=C(O2)[C@H](C)C(=O)[C@]1(C)OC (some centres undefined)
Motilin receptor [1]
  IC50: 1.86 nM
Canis familiaris [2]
  MI100: >70 µg/kg
Oryctolagus cuniculus
  EC50: 209 nM

## CCC1OC(=O)C(C)C(O[C@H]2C[C@@](C)(OC)CC(C)O2)C(C)[C@@H](OC2OC(C)CC(N(C)C(C)C)[C@H]2O)[C@]2(C)CC(C)=C(O2)[C@H](C)C(=O)[C@]1(C)OC (some centres undefined)
Motilin receptor [1]
  IC50: 2.51 nM
Motilin receptor [3]
  IC50: 1.78 nM
Canis familiaris [4]
  MI100: 0.3 µg/kg
Canis familiaris [2]
  MI100: 0.09 µg/kg
Streptococcus pneumoniae
  MIC: 100 µg/mL
Oryctolagus cuniculus
  EC50: 6.17 nM

## CCC1OC(=O)C(C)C(O[C@H]2C[C@@](C)(OC)CC(C)O2)C(C)[C@@H](OC2OC(C)CC(N(C)C)[C@H]2O)[C@]2(C)CC(C)=C(O2)[C@H](C)C(=O)[C@]1(C)OC (some centres undefined)
Klebsiella pneumoniae
  MIC: 100 µg/mL (≈ 140 µM)
Motilin receptor [1]
  IC50: 2.29 nM
Motilin receptor [3]
  IC50: 3.89 nM
Canis familiaris [4]
  MI100: 1.2 µg/kg
Staphylococcus aureus
  MIC: 100 µg/mL (≈ 140 µM)
Canis familiaris [2]
  MI100: 0.4 µg/kg
Streptococcus pneumoniae; read-out: MIC
  MIC: 1600 µM
Oryctolagus cuniculus
  EC50: 10.5 nM
Bacillus subtilis
  MIC: 50 µg/mL (≈ 70.2 µM)

## CCC1OC(=O)C(C)C(O[C@H]2C[C@@](C)(OC)CC(C)O2)C(C)[C@@H](OC2OC(C)CC(N(C)CC)[C@H]2O)[C@]2(C)CC(C)=C(O2)[C@H](C)C(=O)[C@]1(C)OC (some centres undefined)
Motilin receptor [1]
  IC50: 3.47 nM
Motilin receptor [3]
  IC50: 3.8 nM
Canis familiaris [4]
  MI100: 0.2 µg/kg
Canis familiaris [2]
  MI100: 0.3 µg/kg
Streptococcus pneumoniae
  MIC: 100 µg/mL
Oryctolagus cuniculus
  EC50: 9.12 nM
